Laboratory results taken from patent US12581252B2, “Substituted pyrrolo[3,4-b]pyridines as PI3K-α inhibitors” (Relay Therapeutics, Inc., priority 2020, dated 2026).

Molecular target: H1047R PIK3CA enzyme (Homo sapiens, UniProt P42336, H1047R)
Assay: ADP-Glo Biochemical PIK3CA Kinase Assay

Chain of H1047R PIK3CA enzyme (P42336 whole entry H1047R): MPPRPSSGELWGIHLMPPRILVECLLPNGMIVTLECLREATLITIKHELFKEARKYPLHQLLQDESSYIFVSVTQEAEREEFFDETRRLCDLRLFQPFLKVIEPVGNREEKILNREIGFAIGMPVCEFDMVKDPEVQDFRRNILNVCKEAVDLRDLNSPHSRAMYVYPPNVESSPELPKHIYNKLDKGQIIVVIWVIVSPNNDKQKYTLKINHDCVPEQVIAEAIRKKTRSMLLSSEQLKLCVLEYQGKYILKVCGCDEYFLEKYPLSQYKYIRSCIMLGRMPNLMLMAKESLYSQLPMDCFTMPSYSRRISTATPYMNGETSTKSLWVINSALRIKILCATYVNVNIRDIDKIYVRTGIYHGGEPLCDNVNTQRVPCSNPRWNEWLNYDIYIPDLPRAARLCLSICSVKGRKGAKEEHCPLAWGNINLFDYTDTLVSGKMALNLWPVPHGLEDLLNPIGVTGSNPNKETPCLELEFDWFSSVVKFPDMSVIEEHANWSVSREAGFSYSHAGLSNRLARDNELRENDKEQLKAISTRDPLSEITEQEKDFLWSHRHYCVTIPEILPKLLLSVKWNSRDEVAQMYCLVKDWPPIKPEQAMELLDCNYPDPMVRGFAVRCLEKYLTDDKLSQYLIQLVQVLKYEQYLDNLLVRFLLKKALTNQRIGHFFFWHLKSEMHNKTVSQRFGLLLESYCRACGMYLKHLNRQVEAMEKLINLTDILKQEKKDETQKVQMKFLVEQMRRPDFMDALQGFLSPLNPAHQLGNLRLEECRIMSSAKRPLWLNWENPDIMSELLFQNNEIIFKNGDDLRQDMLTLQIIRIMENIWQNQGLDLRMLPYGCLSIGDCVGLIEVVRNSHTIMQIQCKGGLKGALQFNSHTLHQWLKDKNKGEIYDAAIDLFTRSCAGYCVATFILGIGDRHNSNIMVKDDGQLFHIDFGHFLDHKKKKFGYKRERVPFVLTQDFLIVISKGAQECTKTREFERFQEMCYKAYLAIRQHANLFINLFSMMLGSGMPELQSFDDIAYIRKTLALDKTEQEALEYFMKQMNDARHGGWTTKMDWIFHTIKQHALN
Chain of H1047R PIK3CA enzyme (P27986 whole entry partner): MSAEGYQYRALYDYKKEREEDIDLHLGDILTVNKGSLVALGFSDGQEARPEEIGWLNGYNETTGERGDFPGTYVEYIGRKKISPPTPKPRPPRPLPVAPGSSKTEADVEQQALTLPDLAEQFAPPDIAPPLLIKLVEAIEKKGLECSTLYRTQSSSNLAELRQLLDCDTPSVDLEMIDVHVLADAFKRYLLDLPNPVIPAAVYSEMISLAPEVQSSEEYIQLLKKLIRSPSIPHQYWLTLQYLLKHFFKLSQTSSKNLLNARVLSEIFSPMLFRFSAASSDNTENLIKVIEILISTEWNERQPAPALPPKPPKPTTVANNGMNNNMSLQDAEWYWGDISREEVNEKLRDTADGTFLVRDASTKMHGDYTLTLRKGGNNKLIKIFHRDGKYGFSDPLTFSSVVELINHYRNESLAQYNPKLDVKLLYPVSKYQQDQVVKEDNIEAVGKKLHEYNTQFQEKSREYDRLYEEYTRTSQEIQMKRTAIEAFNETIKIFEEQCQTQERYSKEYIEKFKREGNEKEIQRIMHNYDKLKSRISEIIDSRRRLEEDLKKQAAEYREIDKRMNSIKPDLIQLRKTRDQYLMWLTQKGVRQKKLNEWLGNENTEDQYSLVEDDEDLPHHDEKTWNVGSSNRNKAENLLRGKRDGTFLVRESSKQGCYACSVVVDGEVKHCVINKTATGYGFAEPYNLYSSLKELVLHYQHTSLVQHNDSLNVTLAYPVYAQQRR

Row | IC50 [nM] | Structure (SMILES)
1 | 100 to 500 | [2H]c1nc2ccc(-c3cc(NC(=O)c4cc(F)cc(C(F)(F)F)c4)c4c(c3)C(=O)N[C@@H]4c3cc(F)ccc3Cl)cn2n1 (stereo in doubt) [Compound I-1786]
2 | ≤ 100 | O=C(Nc1cc(-c2ccc3nc(C4CC4)nn3c2)cc2c1C(c1cc(F)ccc1Cl)NC2=O)c1cc(F)cc(C(F)(F)F)c1 (stereo not shown) [Compound I-1624]
3 | ≤ 100 | O=C(Nc1cc(OC[C@@H]2CCO2)cc2c1[C@H](c1cc(F)ccc1Cl)NC2=O)c1cc(F)cc(C(F)(F)F)c1 (single isomer, unassigned) [Compound I-1517]
4 | ≤ 100 | Cn1cc(-c2cc(NC(=O)c3cc(F)cc(C(F)(F)F)c3)c3c(c2)C(=O)N[C@H]3c2cc(F)ccc2Cl)ccc1=O (single isomer, unassigned) [Compound I-702]
5 | 100 to 500 | O=C(Nc1cc(-c2n[nH]c3ccncc23)cc2c1C(c1cc(F)ccc1Cl)NC2=O)c1cc(F)cc(C(F)(F)F)c1 (stereo not shown) [Compound I-938]
6 | 10000 to 100000 | O=C1NC(c2cc(F)ccc2Cl)c2c(Nc3cc4ccccc4cn3)cc(Br)cc21 (stereo not shown) [Compound I-1683]
7 | ≤ 100 | O=C(Nc1cc(OCC2(CO)COC2)cc2c1C(c1cc(F)ccc1Cl)NC2=O)c1cc(F)cc(C(F)(F)F)c1 (stereo not shown) [Compound I-1357]
8 | 10000 to 100000 | Cc1ccccc1C1NC(=O)c2cccc(NC(=O)c3nnc4ccccn34)c21 (stereo not shown) [Compound I-328, N-(1-oxo-3-(o-tolyl)isoindolin-4-yl)-[1,2,4]triazolo[4,3-a]pyridine-3-carboxamide]
9 | 1000 to 10000 | O=C(Nc1cc(-c2cn3ncnc3cn2)cc2c1[C@@H](c1cc(F)ccc1Cl)NC2=O)c1cc(F)cc(C(F)(F)F)c1 [Compound I-1440]
10 | 1000 to 10000 | N#CC[C@H](O)c1cc(NC(=O)c2cc(F)cc(C(F)(F)F)c2)c2c(c1)C(=O)N[C@@H]2c1cc(F)ccc1Cl (single isomer, unassigned) [Compound I-1392]
11 | ≤ 100 | O=C(Nc1cc(-c2cccnc2C(F)(F)F)cc2c1C(c1cc(F)ccc1Cl)NC2=O)c1cc(F)cc(C(F)(F)F)c1 (stereo not shown) [Compound I-892]
12 | ≤ 100 | CS(=O)(=O)n1cc(-c2cc(NC(=O)c3cc(F)cc(C(F)(F)F)c3)c3c(c2)C(=O)NC3c2cc(F)ccc2Cl)cn1 (stereo not shown) [Compound I-1498]
13 | ≤ 100 | CC(=O)Cc1cc(NC(=O)c2cc(F)cc(C(F)(F)F)c2)c2c(c1)C(=O)N[C@@H]2c1cc(F)ccc1Cl [Compound I-623]
14 | ≤ 100 | O=C(Nc1cc(C2CCCO2)cc2c1C(c1cc(F)ccc1Cl)NC2=O)c1cc(F)cc(C(F)(F)F)c1 (stereo not shown) [Compound I-364]
15 | 10000 to 100000 | CN1CCN(C(=O)Nc2cc(Br)cc3c2[C@H](c2cc(F)ccc2Cl)NC3=O)CC1 (single isomer, unassigned) [Compound I-2244]
16 | ≤ 100 | O=C1C[C@H](c2cc(NC(=O)c3cc(F)cc(C(F)(F)F)c3)c3c(c2)C(=O)N[C@H]3c2cc(F)ccc2Cl)CN1 (single isomer, unassigned) [Compound I-1709]
17 | 1000 to 10000 | CC[C@@H](CC(=O)Nc1cccc2c1[C@H](c1cc(F)ccc1Cl)NC2=O)[C@H](C)C(F)(F)F (single isomer, unassigned) [Compound I-2336]
18 | 1000 to 10000 | CCCCc1ccc(Cl)c(C2NC(=O)c3cccc(NC(=O)c4cc(O)cc(C(F)(F)F)c4)c32)c1 (stereo not shown) [Compound I-2391]
19 | 500 to 1000 | Nc1cc(NC(=O)c2cc(F)cc(C(F)(F)F)c2)c2c(c1)C(=O)NC2c1cccc(F)c1 (stereo not shown) [Compound I-2320]
20 | 1000 to 10000 | C[C@@H](C#N)Cn1cc(-c2cc(NC(=O)N3C[C@H](O)c4cc(F)ccc43)c3c(c2)C(=O)N[C@H]3c2cc(F)ccc2Cl)cn1 (single isomer, unassigned) [Compound I-2499]

Row | IC50 [nM] | Structure (SMILES)
21 | 10000 to 100000 | CNS(=O)(=O)c1cc(-c2ccc3ncnn3c2)cc2c1C(c1cc(F)ccc1Cl)NC2=O (stereo not shown) [Compound I-1977]
22 | 10000 to 100000 | Cc1ccccc1C1NC(=O)c2cccc(NC(=O)N3CCNC(C(F)(F)F)C3)c21 (racemic) [Compound I-60]
23 | 10000 to 100000 | O=C(Nc1cccc2c1C(c1cc(F)ccc1Cl)NC2=O)c1ccccc1 (stereo not shown) [Compound I-1681]
24 | ≤ 100 | O=C(Nc1cc(-c2ccc3ncc(C(F)F)n3c2)cc2c1C(c1cc(F)ccc1Cl)NC2=O)c1cc(F)cc(C(F)(F)F)c1 (stereo not shown) [Compound I-1866]
25 | 1000 to 10000 | O=C(Nc1cccc2c1C(c1cc(F)ccc1Cl)NC2=O)c1cc(F)cnc1NC1CCC1 (stereo not shown) [Compound I-768]
26 | ≤ 100 | CN(C)C(=O)OCc1cc(NC(=O)c2cc(F)cc(C(F)(F)F)c2)c2c(c1)C(=O)NC2c1cc(F)ccc1Cl (stereo not shown) [Compound I-1532]
27 | 1000 to 10000 | COc1ccc([C@H](C)N2C(=O)c3cc(Br)cc(N)c3[C@@H]2c2cc(F)ccc2Cl)cc1 (racemic) [Compound I-863]
28 | 1000 to 10000 | O=C1N[C@@H](c2cc(F)ccc2Cl)c2c(NC(=O)N3C[C@@](O)(C(F)F)c4cc(F)ccc43)cc(F)cc21 (single isomer, unassigned) [Compound I-2633]
29 | ≤ 100 | O=C(Nc1cc(-c2cnn(-c3nccs3)c2)cc2c1C(c1cc(F)ccc1Cl)NC2=O)c1cc(F)cc(C(F)(F)F)c1 (stereo not shown) [Compound I-1572]
30 | 10000 to 100000 | O=C1NC(c2cc(F)ccc2Cl)c2c(Nc3c[nH]c4ccccc34)cc(Br)cc21 (stereo not shown) [Compound I-1896]
31 | ≤ 100 | O=C(Nc1cc(NCC(F)F)nc2c1C(c1cc(F)ccc1Cl)NC2=O)c1cc(F)cc(C(F)(F)F)c1 (stereo not shown) [Compound I-338]
32 | 10000 to 100000 | O=C1N[C@@H](c2cc(F)ccc2Cl)c2c(NC(=O)[C@@H]3CCC[C@H](OC(F)(F)F)C3)cccc21 (single isomer, unassigned) [Compound I-2214]
33 | 10000 to 100000 | O=C(Nc1cccc2c1C(c1cc(F)ccc1Cl)NC2=O)c1coc2c1COC2 (stereo not shown) [Compound I-2265]
34 | 10000 to 100000 | O=C1NC(c2cc(F)ccc2Cl)c2c(NC(=O)C3(c4ccc(Cl)c(Cl)c4)CCCC3)cc(Br)cc21 (stereo not shown) [Compound I-1636]
35 | ≤ 100 | Cc1ccccc1C1NC(=O)c2c(C(=O)NCC(F)F)ccc(NC(=O)c3nsc4ccccc34)c21 (stereo not shown) [Compound I-276]
36 | ≤ 100 | O=C(Nc1cc(N2CC(F)(F)C2)nc2c1C(c1cc(F)ccc1Cl)NC2=O)c1cc(F)cc(C(F)(F)F)c1 (stereo not shown) [Compound I-286, N-[5-(2-Chloro-5-fluorophenyl)-2-(3,3-difluoroazetidin-1-yl)-7-oxo-5H,6H,7H-pyrrolo[3,4-b]pyridin-4-yl]-3-fluoro-5-(trifluoromethyl)benzamide]
37 | ≤ 100 | O=C(Nc1cc(Br)cc2c1C(c1cc(Cl)ccc1Cl)NC2=O)c1cc(F)cc(C(F)(F)F)c1 (stereo not shown) [Compound I-763]
38 | ≤ 100 | O=C(Nc1cc(Br)cc2c1C(c1cccc(F)c1Cl)NC2=O)c1cc(F)cc(C(F)(F)F)c1 (stereo not shown) [Compound I-672]
39 | ≤ 100 | CP(C)(=O)Cc1cc(NC(=O)c2cc(F)cc(C(F)(F)F)c2)c2c(c1)C(=O)NC2c1cc(F)ccc1Cl (stereo not shown) [Compound I-775]
40 | 1000 to 10000 | O=C1NC(c2cc(F)ccc2Cl)c2c(NC(=O)N3CCC4C3[C@@H]4C(F)(F)F)cccc21 (single isomer, unassigned) [Compound I-2329]

Row | IC50 [nM] | Structure (SMILES)
41 | 10000 to 100000 | Cn1ccc2c(C(=O)Nc3cc(Br)cc4c3C(c3cc(F)ccc3Cl)NC4=O)cccc21 (stereo not shown) [Compound I-670]
42 | ≤ 100 | O=C(Nc1cc(-c2cn3c(F)cnc3cn2)cc2c1[C@H](c1cc(F)ccc1Cl)NC2=O)c1cc(F)cc(C(F)(F)F)c1 [Compound I-1878]
43 | 10000 to 100000 | O=C1NC(c2cc(F)ccc2Cl)c2c1cccc2N1Cc2ccccc2CC1=O (stereo not shown) [Compound I-1746]
44 | ≤ 100 | O=C(Nc1cc(C2CCCOC2)cc2c1C(c1cc(F)ccc1Cl)NC2=O)c1cc(F)cc(C(F)(F)F)c1 (stereo not shown) [Compound I-1142]
45 | ≤ 100 | N#CC1(n2cc(-c3cc(NC(=O)c4cc(F)cc(C(F)(F)F)c4)c4c(c3)C(=O)NC4c3cc(F)ccc3Cl)cn2)CC1 (stereo not shown) [Compound I-1800]
46 | 500 to 1000 | CC([C@@H]1C[C@@H](O)CN1C(=O)Nc1cccc2c1C(c1cc(F)ccc1Cl)NC2=O)C(F)(F)F (single isomer, unassigned) [Compound I-2286]
47 | 1000 to 10000 | O=C(Nc1cccc2c1C(c1cc(F)ccc1Cl)NC2=O)c1cc(Br)cc(C(F)(F)F)c1 (stereo not shown) [Compound I-447]
48 | 10000 to 100000 | O=C1NC(c2cc(F)ccc2Cl)c2c(NC(=O)N3CC4CC(F)(C4)C3)cc(Br)cc21 (stereo not shown) [Compound I-1753]
49 | 1000 to 10000 | Cn1ncc(C2NC(=O)c3cccc(NC(=O)c4nsc5ccccc45)c32)c1C(F)(F)F (stereo not shown) [Compound I-85]
50 | ≤ 100 | CS(=O)(=O)Cn1cc(-c2cc(NC(=O)c3cc(F)cc(C(F)(F)F)c3)c3c(c2)C(=O)NC3c2cc(F)ccc2Cl)cn1 (stereo not shown) [Compound I-1336]
51 | 100 to 500 | O=C(Nc1cc(-c2cn[nH]c2)nc2c1C(c1cc(F)ccc1Cl)NC2=O)c1cc(F)cc(Cl)c1 (stereo not shown) [Compound I-182]
52 | 1000 to 10000 | O=C1NC(c2cc(F)ccc2Cl)c2c(NC(=O)c3cncc4ccccc34)cc(Br)cc21 (stereo not shown) [Compound I-673]
53 | 10000 to 100000 | COc1cccc(C(=O)Nc2cc(Br)cc3c2C(c2cc(F)ccc2Cl)NC3=O)c1 (stereo not shown) [Compound I-469]
54 | 1000 to 10000 | C[C@H](C#N)Oc1cc(NC(=O)c2cc(F)cc(C(F)(F)F)c2)c2c(c1)C(=O)N[C@@H]2c1cc(F)ccc1Cl (single isomer, unassigned) [Compound I-2005]
55 | ≤ 100 | O=C(Nc1cc(-c2ccn3ccnc3c2)cc2c1C(c1cc(F)ccc1Cl)NC2=O)c1cc(F)cc(C(F)(F)F)c1 (stereo not shown) [Compound I-1372]
56 | 10000 to 100000 | O=C(Nc1cc(Br)cc2c1C(c1cc(F)ccc1Cl)NC2=O)c1cc(F)cc(COC(F)F)c1 (stereo not shown) [Compound I-1285]
57 | 500 to 1000 | COC(=O)c1cc(NC(=O)c2nsc3ccccc23)c2c(c1)C(=O)NC2c1ccccc1C (stereo not shown) [Compound I-314]
58 | 10000 to 100000 | Cc1ccccc1C1NC(=O)c2cccc(NC(=O)c3cccc4c3CCCO4)c21 (stereo not shown) [Compound I-11]
59 | ≤ 100 | Cc1c(-c2cc(NC(=O)c3cc(F)cc(C(F)(F)F)c3)c3c(c2)C(=O)N[C@H]3c2cc(F)ccc2Cl)ccc2ncnn12 [Compound I-1876]

Row | Structure (SMILES) | IC50 [nM]
60 | Nc1nc2cc(-c3cc(NC(=O)c4cc(F)cc(C(F)(F)F)c4)c4c(c3)C(=O)N[C@@H]4c3cc(F)ccc3Cl)ccn2n1 [Compound I-1446] | ≤ 100
61 | CC(C)(O)Cc1cc(NC(=O)c2cc(F)cc(Cl)c2)c2c(c1)C(=O)N[C@H]2c1cc(F)ccc1Cl [Compound I-963] | 500 to 1000
